What was measured:
Format in all cases: cell-based, human
GADD45G = experiment: Expression level of GADD45G in treated neurospheres by RNA-seq (Experimental Example 2); details: vs control
Experimental: Neurospheres derived from 201B7 cells, which are cells of a human iPS cell line, were prepared in the same manner as in Experimental Example 1.
In addition, neurospheres derived from 414C2 cells, which are cells of a human iPS cell line, were prepared according to the following method. First, 414C2 cells were subjected to adhesion culture for 12 days together with fibroblasts derived from a mouse embryo. Subsequently, the cells were subjected to suspension culture for 30 days to form a germ layer body. Subsequently, the aggregated cells were dissociated, cultured in a culture medium obtained by adding 20 ng/ml of FGF2 (PeproTech, Inc.) to an MHM medium of which the composition is shown in Table 1 above, and differentiated into neurospheres.
Subsequently, each neurosphere derived from iPS cells was treated with each of DAPT and Compound 34. Subsequently, one neurosphere having a diameter of about 100 μm was selected from the neurospheres in each group and subjected to an RNA-seq analysis.
FIG. 3 is a graph showing the results obtained by treating the neurosphere derived from 201B7 cells with each of DAPT and Compound 34, carrying out the RNA-seq analysis, and quantifying the expression level of GADD45G based on transcriptome data. In FIG. 3, “Ctl” indicates the result obtained from the control, “DAPT” indicates the result obtained by the DAPT treatment, and “C. 34” indicates the result obtained by Compound 34 treatment.

phosphorylated p38 = experiment: Immunostaining of phosphorylated p38 in treated neurospheres (Experimental Example 3); details: 201B7 neurospheres; 10 μM DAPT, 1 μM Compound 34, 24 hours; vs control
Experimental: Neurospheres derived from 201B7 cells were treated with various γ-secretase inhibitors in the same manner as in Experimental Example 1. As the γ-secretase inhibitor, DAPT, Compound 34, L-685,458, LY411575, Sulindac, and Compound E were used at the same concentrations as in Experimental Example 1. Subsequently, each neurosphere was fixed with paraformaldehyde and subjected to immunostaining of phosphorylated p38.
FIG. 5 is a graph showing the results obtained by quantifying the amount of the phosphorylated p38 in the neurosphere which had been treated with each of the γ-secretase inhibitors. In FIG. 5, “Ctl” indicates the result obtained from the control, “DAPT” indicates the result obtained by the DAPT treatment, “C. 34” indicates the result obtained by Compound 34 treatment, “L-685” indicates the result obtained by the L-685,458 treatment, “LY” indicates the result obtained by the LY411575 treatment, “Suli” indicates the result obtained by the Sulindac treatment, and “Com. E” indicates the result obtained by the Compound E treatment.

p38 = experiment: Expression level of p38 by RNA-seq (Experimental Example 3); details: 201B7 neurospheres, vs control
From the text: FIG. 6 is a graph showing the results obtained by treating the neurosphere derived from 201B7 cells with each of DAPT and Compound 34, carrying out the RNA-seq analysis, and quantifying the expression level of p38 based on transcriptome data.

phosphorylated CDC25B = experiment: Immunostaining of phosphorylated CDC25B in treated neurospheres (Experimental Example 4); details: 201B7 neurospheres; 10 μM DAPT, 1 μM Compound 34, 24 hours; vs control
Experimental: Neurospheres derived from 201B7 cells were treated with various γ-secretase inhibitors in the same manner as in Experimental Example 1. As the γ-secretase inhibitor, DAPT, Compound 34, L-685,458, LY411575, Sulindac, and Compound E were used at the same concentrations as in Experimental Example 1. Subsequently, each neurosphere was fixed with paraformaldehyde and subjected to immunostaining of phosphorylated CDC25B.
FIG. 8 is a graph showing the results obtained by quantifying the amount of the phosphorylated CDC25B in the neurosphere which had been treated with each of the γ-secretase inhibitors.

CDC25B = experiment: Expression level of CDC25B by RNA-seq (Experimental Example 4); details: 201B7 neurospheres, vs control
From the text: FIG. 9 is a graph showing the results obtained by treating the neurosphere derived from 201B7 cells with each of DAPT and Compound 34, carrying out the RNA-seq analysis, and quantifying the expression level of CDC25B based on transcriptome data.

[1] = neurosphere derived from 201B7 cells
[2] = neurosphere derived from 414C2 cells

Compound | expression of GADD45G (GADD45G; [1]) | expression of GADD45G (GADD45G; [2]) | amount of phosphorylated p38 in the neurosphere (phosphorylated p38) | expression level of p38 (p38) | amount of phosphorylated CDC25B in the neurosphere (phosphorylated CDC25B) | expression level of CDC25B (CDC25B)
C[C@H](NC(=O)Cc1cc(F)cc(F)c1)C(=O)N[C@H](C(=O)OC(C)(C)C)c1ccccc1 [DAPT] | significantly increased | significantly increased | significantly increased | not increased | significantly increased | slightly increased
O=C1Nc2ccccc2C(c2ccccc2)=N[C@@H]1NC(=O)[C@H](c1ccc(F)cc1)[C@@H](CO)c1ccc(F)c(F)c1 [Compound 34] | significantly increased | significantly increased | significantly increased | not increased | significantly increased | slightly increased

Reference: patent publication US20240252546A1, “NEURITE OUTGROWTH PROMOTION KIT AND USE THEREFOR” (KEIO UNIVERSITY, priority 2021, published 2024)
